Test results published in PMC4965013, “Open Source Drug Discovery with the Malaria Box Compound Collection for Neglected Diseases and Beyond” (PLoS Pathogens, 2016).
pEC50: −log10 of the molar value.

What was measured:
[1] = tested on: P. falciparum 3D7 trophozoites; experiment: Metabolomic fingerprint profiling LC-MS; format: cell-based, Plasmodium falciparum; set-up: UDP-D-glucose / ADP-D-glucose: unit not given here; conditions: for Acetyllysine / N-acetyl-L-ornithine / N-carbamoyl-L-aspartate / NADPH / dAMP / dCMP / dTDP / dTMP / dTTP / dihydroorotate / orotate / DLH / DLS/SDL/SID / PD / PEE / PVNF / 3-phosphoglycerate / ADP-D-glucose / ATP / CDP / D-sedoheptulose-1/7-phosphate / FAD / GMP / NAD+ / NADP+ / Octoluse Bisphosphate / Pyroglutamic acid / UDP-D-glucose / UDP-D-glucuronate / UDP-N-acetyl-glucosamine / UDP / UMP / UTP / a-ketoglutarate / citrate/isocitrate / cytidine / dATP / dGMP/AMP / fumarate / glucose-1/6-phosphate / glycerate / guanine / guanosine / hypoxanthine / indole / inosine / nicotinate / ornithine / phosphoenolpyruvate / pyruvate / ribose-phosphate / sarcosine/alanine / sn-glycerol-3-phosphate / succinate/methylmalonic acid / uridine / xanthosine: S2 Table Metabolomics; for Acetyllysine: metabolite Acetyllysine; for N-acetyl-L-ornithine: metabolite N-acetyl-L-ornithine; for N-carbamoyl-L-aspartate: metabolite N-carbamoyl-L-aspartate; for NADPH: metabolite NADPH; for dAMP: metabolite dAMP; for dCMP: metabolite dCMP; for dTDP: metabolite dTDP; for dTMP: metabolite dTMP; for dTTP: metabolite dTTP; for dihydroorotate: metabolite dihydroorotate; for orotate: metabolite orotate; for DLH: peptide DLH; for DLS/SDL/SID: peptide DLS/SDL/SID; for PD: peptide PD; for PEE: peptide PEE; for PVNF: peptide PVNF; for 3-phosphoglycerate: metabolite 3-phosphoglycerate; for ADP-D-glucose: metabolite ADP-D-glucose; for ATP: metabolite ATP; for CDP: metabolite CDP; for CDP / D-sedoheptulose-1/7-phosphate / GMP / Octoluse Bisphosphate / UDP / UMP / UTP / citrate/isocitrate / dGMP/AMP / fumarate / glucose-1/6-phosphate / glycerate / guanine / guanosine / inosine / pyruvate / sarcosine/alanine / succinate/methylmalonic acid / uridine / xanthosine: change in metabolite level after compound treatment; for D-sedoheptulose-1/7-phosphate: metabolite D-sedoheptulose-1/7-phosphate; for FAD: metabolite FAD; for GMP: metabolite GMP; for NAD+: metabolite NAD+; for NADP+: metabolite NADP+; for Octoluse Bisphosphate: metabolite Octoluse Bisphosphate; for Pyroglutamic acid: metabolite Pyroglutamic acid; for UDP-D-glucose: metabolite UDP-D-glucose; for UDP-D-glucuronate: metabolite UDP-D-glucuronate; for UDP-N-acetyl-glucosamine: metabolite UDP-N-acetyl-glucosamine; for UDP: metabolite UDP; for UMP: metabolite UMP; for UTP: metabolite UTP; for a-ketoglutarate: metabolite a-ketoglutarate; for citrate/isocitrate: metabolite citrate/isocitrate; for cytidine: metabolite cytidine; for dATP: metabolite dATP; for dGMP/AMP: metabolite dGMP/AMP; for fumarate: metabolite fumarate; for glucose-1/6-phosphate: metabolite glucose-1/6-phosphate; for glycerate: metabolite glycerate; for guanine: metabolite guanine; for guanosine: metabolite guanosine; for hypoxanthine: metabolite hypoxanthine; for indole: metabolite indole; for inosine: metabolite inosine; for 2_3-Diphosphoglyceric acid / 4-phosphopantothenate / 6-phospho-D-gluconate / FMN / IMP / Pyrophosphate / Sedoheptoluse bisphosphate / cyclic-AMP / glutathione disulfide / lactate / myo-inositol: metabolite level change after treatment; for nicotinate: metabolite nicotinate; for ornithine: metabolite ornithine; for phosphoenolpyruvate: metabolite phosphoenolpyruvate; for pyruvate: metabolite pyruvate; for ribose-phosphate: metabolite ribose-phosphate; for sarcosine/alanine: metabolite sarcosine/alanine; for sn-glycerol-3-phosphate: metabolite sn-glycerol-3-phosphate; for succinate/methylmalonic acid: metabolite succinate/methylmalonic acid; for uridine: metabolite uridine; for xanthosine: metabolite xanthosine
P. falciparum = experiment: EC50 listed in S2 Table Metabolomics (used to set the concentration tested); format: cell-based; conditions: Plasmodium falciparum; EC50 used for Factor_XEC50 in metabolomics; read-out: EC50_nM

Compound: c1ccc2cc3c(Nc4ccc(N5CCOCC5)cc4)ccnc3cc2c1 [MMV006861]
- Acetyllysine [1]: 0.001155
- N-acetyl-L-ornithine [1]: 0.1202
- N-carbamoyl-L-aspartate [1]: 0.09461
- NADPH [1]: 0.6132
- dAMP [1]: -0.1929
- dCMP [1]: 0.2768
- dTDP [1]: 0.03656
- dTMP [1]: 0.1106
- dTTP [1]: -0.07535
- dihydroorotate [1]: 0.311
- orotate [1]: -0.21
- DLH [1]: 0.09611
- DLS/SDL/SID [1]: 0.08895
- PD [1]: 0.008487
- PEE [1]: 0.1992
- PVNF [1]: -0.07307
- 3-phosphoglycerate [1]: -0.2621
- ADP-D-glucose [1]: 0.04555
- ATP [1]: 0.1894
- CDP [1]: 0.09878
- D-sedoheptulose-1/7-phosphate [1]: 0.1691
- FAD [1]: 0.1498
- GMP [1]: 0.6017
- NAD+ [1]: 0.04038
- NADP+ [1]: 0.01746
- Octoluse Bisphosphate [1]: 0.06917
- Pyroglutamic acid [1]: 0.7013
- UDP-D-glucose [1]: -0.003086
- UDP-D-glucuronate [1]: -0.03493
- UDP-N-acetyl-glucosamine [1]: 0.008052
- UDP [1]: 0.1461
- UMP [1]: -0.13
- UTP [1]: -0.06454
- a-ketoglutarate [1]: -0.4694
- citrate/isocitrate [1]: -0.2815
- cytidine [1]: -0.002725
- dATP [1]: -0.03123
- dGMP/AMP [1]: -0.0595
- fumarate [1]: -0.1611
- glucose-1/6-phosphate [1]: 0.03738
- glycerate [1]: -0.6693
- guanine [1]: -0.08848
- guanosine [1]: -0.211
- hypoxanthine [1]: -0.05987
- indole [1]: -0.08261
- inosine [1]: -0.2117
- 2_3-Diphosphoglyceric acid [1]: 0.06563
- 4-phosphopantothenate [1]: -0.011
- 6-phospho-D-gluconate [1]: -0.02789
- FMN [1]: 0.1069
- IMP [1]: -0.3519
- Pyrophosphate [1]: 0.04971
- Sedoheptoluse bisphosphate [1]: 0.0295
- cyclic-AMP [1]: 0.009655
- glutathione disulfide [1]: -0.09687
- lactate [1]: -0.2479
- myo-inositol [1]: -0.35
- nicotinate [1]: -0.2896
- ornithine [1]: -0.2133
- phosphoenolpyruvate [1]: -0.1566
- pyruvate [1]: -0.275
- ribose-phosphate [1]: -0.01288
- sarcosine/alanine [1]: -0.00437
- sn-glycerol-3-phosphate [1]: -0.1431
- succinate/methylmalonic acid [1]: -0.003665
- uridine [1]: -0.2532
- xanthosine [1]: -0.2406
- pEC50 (P. falciparum): 6.60

Compound: COc1cc(OC)c(N(C)C(=O)c2cc3c(s2)-c2ccccc2S(=O)(=O)C3)cc1Cl [MMV006427]
- Acetyllysine [1]: -3.0678
- N-acetyl-L-ornithine [1]: -2.077
- N-carbamoyl-L-aspartate [1]: -3.4047
- NADPH [1]: -0.4646
- dAMP [1]: 2.306
- dCMP [1]: 1.395
- dTDP [1]: 3.378
- dTMP [1]: 4.553
- dTTP [1]: 1.85
- dihydroorotate [1]: -2.575
- orotate [1]: 0.4264
- DLH [1]: -5.058
- DLS/SDL/SID [1]: -4.1926
- PD [1]: -1.1837
- PEE [1]: -3.666
- PVNF [1]: -5.242
- 3-phosphoglycerate [1]: 0.1517
- ADP-D-glucose [1]: -0.124
- ATP [1]: -1.807
- CDP [1]: 0.8052
- D-sedoheptulose-1/7-phosphate [1]: -0.2773
- FAD [1]: -1.0601
- GMP [1]: -2.558
- NAD+ [1]: 0.783
- NADP+ [1]: 0.3092
- Octoluse Bisphosphate [1]: -2.061
- Pyroglutamic acid [1]: -0.1068
- UDP-D-glucose [1]: 0.214
- UDP-D-glucuronate [1]: -0.1144
- UDP-N-acetyl-glucosamine [1]: 0.3636
- UDP [1]: 0.3063
- UMP [1]: 0.3348
- UTP [1]: -0.8427
- a-ketoglutarate [1]: -0.411
- citrate/isocitrate [1]: 0.0762
- cytidine [1]: 0.3423
- dATP [1]: -0.2111
- dGMP/AMP [1]: -0.9855
- fumarate [1]: -0.3788
- glucose-1/6-phosphate [1]: -0.5462
- glycerate [1]: -0.8092
- guanine [1]: 0.1326
- guanosine [1]: 0.04127
- hypoxanthine [1]: -0.06662
- indole [1]: -0.3106
- inosine [1]: 0.06183
- 2_3-Diphosphoglyceric acid [1]: -0.9034
- 4-phosphopantothenate [1]: -0.1012
- 6-phospho-D-gluconate [1]: -0.09619
- FMN [1]: 0.1283
- IMP [1]: 0.7504
- Pyrophosphate [1]: -1.05
- Sedoheptoluse bisphosphate [1]: -0.7918
- cyclic-AMP [1]: -0.9224
- glutathione disulfide [1]: -0.1859
- lactate [1]: -1.014
- myo-inositol [1]: -1.304
- nicotinate [1]: 0.5771
- ornithine [1]: 0.02692
- phosphoenolpyruvate [1]: 0.2074
- pyruvate [1]: -1.66
- ribose-phosphate [1]: -0.6233
- sarcosine/alanine [1]: -1.711
- sn-glycerol-3-phosphate [1]: 0.334
- succinate/methylmalonic acid [1]: 0.04426
- uridine [1]: -0.5041
- xanthosine [1]: -1.485
- pEC50 (P. falciparum): 7.11

Compound: O=C(CSc1nccn2nc(-c3ccccc3)cc12)Nc1cc(C(F)(F)F)ccc1Cl [MMV396678]
- Acetyllysine [1]: -0.4877
- N-acetyl-L-ornithine [1]: -0.4938
- N-carbamoyl-L-aspartate [1]: 3.602
- NADPH [1]: -0.3509
- dAMP [1]: -2.425
- dCMP [1]: -0.1067
- dTDP [1]: -0.8621
- dTMP [1]: -0.7966
- dTTP [1]: -1.266
- dihydroorotate [1]: 4.597
- orotate [1]: 0.259
- DLH [1]: -0.3174
- DLS/SDL/SID [1]: -0.3424
- PD [1]: -0.07917
- PEE [1]: -0.441
- PVNF [1]: -2.237
- 3-phosphoglycerate [1]: -0.1451
- ADP-D-glucose [1]: -0.07756
- ATP [1]: 0.1007
- CDP [1]: -0.7494
- D-sedoheptulose-1/7-phosphate [1]: -0.4438
- FAD [1]: -0.03171
- GMP [1]: 0.3554
- NAD+ [1]: 0.01671
- NADP+ [1]: -0.09002
- Octoluse Bisphosphate [1]: -0.2508
- Pyroglutamic acid [1]: 0.3744
- UDP-D-glucose [1]: -0.1169
- UDP-D-glucuronate [1]: -0.3093
- UDP-N-acetyl-glucosamine [1]: -0.3205
- UDP [1]: -0.9356
- UMP [1]: -0.7589
- UTP [1]: -1.3566
- a-ketoglutarate [1]: 0.2592
- citrate/isocitrate [1]: 0.4562
- cytidine [1]: 0.4629
- dATP [1]: 0.2611
- dGMP/AMP [1]: -0.1351
- fumarate [1]: 0.07736
- glucose-1/6-phosphate [1]: 0.1714
- glycerate [1]: 0.291
- guanine [1]: 0.4817
- guanosine [1]: 0.7569
- hypoxanthine [1]: 0.5204
- indole [1]: 0.3835
- inosine [1]: 0.4193
- 2_3-Diphosphoglyceric acid [1]: -0.1645
- 4-phosphopantothenate [1]: -0.3586
- 6-phospho-D-gluconate [1]: -0.1209
- FMN [1]: -0.2869
- IMP [1]: 0.1606
- Pyrophosphate [1]: -0.1573
- Sedoheptoluse bisphosphate [1]: -0.2556
- cyclic-AMP [1]: -0.1203
- glutathione disulfide [1]: -0.08653
- lactate [1]: 0.1751
- myo-inositol [1]: -0.2117
- nicotinate [1]: 0.4349
- ornithine [1]: 0.266
- phosphoenolpyruvate [1]: 0.01446
- pyruvate [1]: 0.3754
- ribose-phosphate [1]: -0.04013
- sarcosine/alanine [1]: -0.09301
- sn-glycerol-3-phosphate [1]: -0.3771
- succinate/methylmalonic acid [1]: 0.03069
- uridine [1]: 0.1532
- xanthosine [1]: 0.489
